For one assay, the system named is Aβ1-42. Kind of assay: Measurement of Aβ1-42 in culture medium of 7W WT APP751 CHO cells by ELISA. Type of assay: cell-based, Chinese hamster. Particulars: for activity at 5 µM: Cricetulus griseus, Table 1, 5 μM test compound, CHO cells stably transfected with human APP751, culture medium, ELISA, control DMSO, 0 = no detectable amount, read-out: Aβ1-42 (% of control); for Aβ1-42 (% of control): CHO cells that overexpress APP751, zero = below the detection limit of the assay. In general terms: ELISA stands for enzyme-linked immunosorbent assay.

A further assay deals with Aβ1-40. In words: Measurement of Aβ1-40 in culture medium of 7W WT APP751 CHO cells by ELISA. The assay is classed as cell-based, Chinese hamster. To be noted: for activity at 5 µM: Cricetulus griseus, Table 1, 5 μM test compound, CHO cells stably transfected with human APP751, culture medium, ELISA, control DMSO, 0 = no detectable amount; for Aβ1-40 (% of control): CHO cells that overexpress APP751, zero = below the detection limit of the assay.
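Also: 5 µM test compound but RI-coded compounds at 10 µM for 24 hours.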

Regarding `CC1=C(C(=O)OCCc2ccccc2)C(c2cccc(Br)c2)C2=C(CCCC2=O)N1` (stereo not shown) [ST052221, 2-phenylethyl 4-(3-bromophenyl)-2-methyl-5-oxo-1,4,6,7,8-pentahydroquinoline-3-carboxylate], the values for the activity at 5 µM with Aβ1-42 and in the assay on Aβ1-40 were 46.1% and 62.4%, respectively.
In the case of `COc1ccc(Br)cc1C1C(C(=O)OCC2CCCO2)=C(C)NC2=C1C(=O)CCC2` (stereo not shown) [ST052224, oxolan-2-ylmethyl 4-(5-bromo-2-methoxyphenyl)-2-methyl-5-oxo-1,4,6,7,8-pentahydroquinoline-3-carboxylate], the activity at 5 µM was 68.1% with Aβ1-42 and 76.9% in the assay on Aβ1-40.
Turning to `CC1=C(C(=O)OCCc2ccccc2)C(c2ccccc2F)C2=C(CC(C)(C)CC2=O)N1` (stereo not shown) [ST052225, 2-phenylethyl 4-(2-fluorophenyl)-2,7,7-trimethyl-5-oxo-1,4,6,7,8-pentahydroquinoline-3-carboxylate], the activity at 5 µM turned out to be 29.7% in the assay with Aβ1-42 and 37.7% in the assay with Aβ1-40.
For `CC1=C(C(=O)OCCc2ccccc2)C(c2ccccc2C(F)(F)F)C2=C(CCCC2=O)N1` (stereo not shown) [ST052228, 2-phenylethyl 2-methyl-5-oxo-4-[2-(trifluoromethyl)phenyl]-1,4,6,7,8-pentahydroquinoline-3-carboxylate], in that order: 36.9% and 60.4%.
Regarding `CC1=C(C(=O)OCCc2ccccc2)C(c2ccc(N(C)C)cc2)C2=C(CC(C)(C)CC2=O)N1` (stereo not shown) [ST052231, 2-phenylethyl 4-[4-(dimethylamino)phenyl]-2,7,7-trimethyl-5-oxo-1,4,6,7,8-pentahydroquinoline-3-carboxylate], the activity at 5 µM in the assay on Aβ1-42 came to 63.5%; with Aβ1-40, 38.8%.
For `CC1=C(C(=O)OCCOc2ccccc2)C(c2ccc(C(C)C)cc2)C2=C(CCCC2=O)N1` (stereo not shown) [ST052247, 2-phenoxyethyl 2-methyl-4-[4-(methylethyl)phenyl]-5-oxo-1,4,6,7,8-pentahydroquinoline-3-carboxylate], in that order: 64.1% and 98%.
For the molecule `COC(=O)C1=CNC=C(C(=O)OC)C1c1cccc(OC)c1` [ST052261, methyl 5-(methoxycarbonyl)-4-(3-methoxyphenyl)-1,4-dihydropyridine-3-carboxylate], the “Aβ1-42 (% of control)” value in the assay on Aβ1-42 is on record as 57.24 % of control. Besides, the “Aβ1-40 (% of control)” value with Aβ1-40 was 38.04 % of control.
For the molecule `CC1=C(C(=O)OC2CCCC2)C(c2ccc(C)s2)C2=C(CCCC2=O)N1` (stereo not shown) [ST052262, cyclopentyl 2-methyl-4-(5-methyl(2-thienyl))-5-oxo-1,4,6,7,8-pentahydroquinoline-3-carboxylate], the values for the activity at 5 µM in the assay with Aβ1-42 and in the assay on Aβ1-40 were 19.7% and 13.2%, respectively.
The matching figures for `CC1=C(C(=O)OC2CCCC2)C(c2ccc(F)c(F)c2)C2=C(CCCC2=O)N1` (stereo not shown) [ST052267, cyclopentyl 4-(3,4-difluorophenyl)-2-methyl-5-oxo-1,4,6,7,8-pentahydroquinoline-3-carboxylate]: 52.8% and 50.7%.
Take `COc1ccc(COC(=O)C2=C(C)NC3=C(C(=O)CCC3)C2c2ccccc2C(F)(F)F)cc1` (stereo not shown) [ST052271, (4-methoxyphenyl)methyl 2-methyl-5-oxo-4-[2-(trifluoromethyl)phenyl]-1,4,6,7,8-pentahydroquinoline-3-carboxylate]: the activity at 5 µM is 23.9% with Aβ1-42 and 25.8% in the assay on Aβ1-40.
Take `CC1=C(C(=O)OCCOC(C)C)C(c2ccc([N+](=O)[O-])cc2)C2=C(CC(C)(C)CC2=O)N1` (stereo not shown) [ST052272, 2-(methylethoxy)ethyl 2,7,7-trimethyl-4-(4-nitrophenyl)-5-oxo-1,4,6,7,8-pentahydroquinoline-3-carboxylate]: the activity at 5 µM in the assay with Aβ1-42 amounted to 29.2%; with Aβ1-40 it was 65.8%.
Regarding `COC(=O)C1=CNC=C(C(=O)OC)C1c1cccc(OCc2ccccc2)c1` [ST052273, methyl 5-(methoxycarbonyl)-4-[3-(phenylmethoxy)phenyl]-1,4-dihydropyridine-3-carboxylate], the “Aβ1-42 (% of control)” value in the assay on Aβ1-42 is given as 57.92 % of control. Moreover, the “Aβ1-40 (% of control)” value with Aβ1-40 is on record as 84.66 % of control.
Regarding `CCc1ccc(C2C(C(=O)OC)=CNC=C2C(=O)OC)cc1` [ST052274, methyl 4-(4-ethylphenyl)-5-(methoxycarbonyl)-1,4-dihydropyridine-3-carboxylate], in the assay on Aβ1-42, the “Aβ1-42 (% of control)” value is 0 % of control. Moreover, the “Aβ1-40 (% of control)” value with Aβ1-40 is reported as 4.952 % of control.
Regarding `CC1=C(C(=O)OCCOc2ccccc2)C(c2ccc(C)s2)C2=C(CCCC2=O)N1` (stereo not shown) [ST052280, 2-phenoxyethyl 2-methyl-4-(5-methyl(2-thienyl))-5-oxo-1,4,6,7,8-pentahydroquinoline-3-carboxylate], the activity at 5 µM was found to be 37.7% with Aβ1-42 and 73.6% in the assay on Aβ1-40.
On to `CCOC(=O)C1=CN(c2ccc(C)cc2)C=C(C(=O)OCC)C1c1ccccc1OCC` [ST052284, ethyl 5-(ethoxycarbonyl)-4-(2-ethoxyphenyl)-1-(4-methylphenyl)-1,4-dihydropyridine-3-carboxylate], for which, in the assay with Aβ1-42, the “Aβ1-42 (% of control)” value is given as 55.61 % of control. In addition, the “Aβ1-40 (% of control)” value in the assay on Aβ1-40 is recorded as 57.71 % of control.
On to `COc1ccccc1NC(=O)C1=C(C)NC2=C(C(=O)CCC2)C1c1ccc(Cl)cc1` (stereo not shown) [ST052292, [4-(4-chlorophenyl)-2-methyl-5-oxo(3-1,4,6,7,8-pentahydroquinolyl)]-N-(2-methoxyphenyl)carboxamide], for which the activity at 5 µM in the assay with Aβ1-42 came out at 68.2%; in the assay with Aβ1-40, 85.8%.
In the case of `COC(=O)C1=C(C)NC2=C(C(=O)CC(c3cccs3)C2)C1c1ccc(C)s1` (stereo not shown) [ST052308, methyl 2-methyl-4-(5-methyl(2-thienyl))-5-oxo-7-(2-thienyl)-1,4,6,7,8-pentahydroquinoline-3-carboxylate], the activity at 5 µM was determined as 74.2% in the assay on Aβ1-42 and 48.4% with Aβ1-40.
Regarding `COCCOC(=O)C1=C(C)NC2=C(C(=O)CC(C)(C)C2)C1c1ccc(C(C)C)cc1` (stereo not shown) [ST052313, 2-methoxyethyl 2,7,7-trimethyl-4-[4-(methylethyl)phenyl]-5-oxo-1,4,6,7,8-pentahydroquinoline-3-carboxylate], the activity at 5 µM amounted to 23.4% with Aβ1-42 and 26.3% in the assay on Aβ1-40.
For `CCOC(=O)C1=CN(c2ccc(F)cc2)C=C(C(=O)OCC)C1c1ccccc1OCC` [ST052316, ethyl 5-(ethoxycarbonyl)-4-(2-ethoxyphenyl)-1-(4-fluorophenyl)-1,4-dihydropyridine-3-carboxylate], in the assay with Aβ1-42, the “Aβ1-42 (% of control)” value is listed as 40.03 % of control. For the same molecule, the “Aβ1-40 (% of control)” value in the assay on Aβ1-40 is on record as 68.09 % of control.
As for `CC1=C(C(=O)OCCc2ccccc2)C(c2ccc(C(F)(F)F)cc2)C2=C(CCCC2=O)N1` (stereo not shown) [ST052320, 2-phenylethyl 2-methyl-5-oxo-4-[4-(trifluoromethyl)phenyl]-1,4,6,7,8-pentahydroquinoline-3-carboxylate], the activity at 5 µM in the assay on Aβ1-42 amounted to 0%; in the assay with Aβ1-40, 9.44%.
Turning to `CC1=C(C(=O)OCc2ccccc2)C(c2ccc(C(F)(F)F)cc2)C2=C(CCCC2=O)N1` (stereo not shown) [ST052323, phenylmethyl 2-methyl-5-oxo-4-[4-(trifluoromethyl)phenyl]-1,4,6,7,8-pentahydroquinoline-3-carboxylate], the activity at 5 µM with Aβ1-42 was 0%; with Aβ1-40, 4.91%.
In the case of `COc1ccc(C2C(C(=O)OC3CCCCC3)=C(C)NC3=C2C(=O)CC(C)(C)C3)cc1O` (stereo not shown) [ST052325, cyclohexyl 4-(3-hydroxy-4-methoxyphenyl)-2,7,7-trimethyl-5-oxo-1,4,6,7,8-pentahydroquinoline-3-carboxylate], the activity at 5 µM in the assay with Aβ1-42 was determined as 33%; in the assay with Aβ1-40, 41.7%.
For the molecule `CCOC(=O)C1=CN(c2ccc(F)cc2)C=C(C(=O)OCC)C1c1cccs1` [ST052327, ethyl 5-(ethoxycarbonyl)-1-(4-fluorophenyl)-4-(2-thienyl)-1,4-dihydropyridine-3-carboxylate], in the assay with Aβ1-42, the “Aβ1-42 (% of control)” value is 84.33 % of control. For the same molecule, the “Aβ1-40 (% of control)” value in the assay with Aβ1-40 is 57.74 % of control.
For the molecule `CC1=C(C(=O)OCCOc2ccccc2)C(c2coc3ccc(C)cc3c2=O)C2=C(CCCC2=O)N1` (stereo not shown) [ST052330, 2-phenoxyethyl 2-methyl-4-(6-methyl-4-oxochromen-3-yl)-5-oxo-1,4,6,7,8-pentahydroquinoline-3-carboxylate], the figures for the activity at 5 µM in the assay with Aβ1-42 and in the assay with Aβ1-40 were 15.5% and 42.6%, respectively.
Take `CCSCCOC(=O)C1=C(C)NC2=C(C(=O)CC(C)(C)C2)C1c1ccccc1C` (stereo not shown) [ST052342, 2-ethylthioethyl 2,7,7-trimethyl-4-(2-methylphenyl)-5-oxo-1,4,6,7,8-pentahydroquinoline-3-carboxylate]: the activity at 5 µM with Aβ1-42 came out at 9.88%; in the assay on Aβ1-40, 13.7%.
For `CC1=C(C(=O)OCCc2ccccc2)C(c2ccc(C)s2)C2=C(CC(C)(C)CC2=O)N1` (stereo not shown) [ST052344, 2-phenylethyl 2,7,7-trimethyl-4-(5-methyl(2-thienyl))-5-oxo-1,4,6,7,8-pentahydroquinoline-3-carboxylate], the values for the activity at 5 µM in the assay on Aβ1-42 and with Aβ1-40 were 24.4% and 24.1%, respectively.
In the case of `CC1=C(C(=O)OCC(C)C)C(c2ccc(F)c(F)c2)C2=C(CCCC2=O)N1` (stereo not shown) [ST052345, 2-methylpropyl 4-(3,4-difluorophenyl)-2-methyl-5-oxo-1,4,6,7,8-pentanydroquinoline-3-carboxylate], the activity at 5 µM in the assay with Aβ1-42 was 7.81%; in the assay on Aβ1-40 it was 43.6%.
Take `COC(=O)C1=C(C)NC2=C(C(=O)CCC2)C1c1cccc(C(F)(F)F)c1` (stereo not shown) [ST052347, methyl 2-methyl-5-oxo-4-[3-(trifluoromethyl)phenyl]-1,4,6,7,8-pentahydroquinoline-3-carboxylate]: the activity at 5 µM stood at 64.3% with Aβ1-42 and 57.2% in the assay on Aβ1-40.
The matching figures for `CC1=C(C(=O)OCC(C)C)C(c2cc([N+](=O)[O-])ccc2Cl)C2=C(CCCC2=O)N1` (stereo not shown) [ST052351, 2-methylpropyl 4-(2-chloro-5-nitrophenyl)-2-methyl-5-oxo-1,4,6,7,8-pentahydroquinoline-3-carboxylate]: 20.3% and 19.3%.
